According to ChEMBL document CHEMBL1201862, “PubChem BioAssay data set” (2004):
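Five compound concentrations were applied to cells in 96-well plates for 48 hours; endpoints were derived by simple linear interpolation of the resulting dose-response curve. GI50 is the concentration that inhibits growth by half.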 Active and inactive are the calls of the source. Cut-off read from the data, not from the text of the source: active = GI50 up to about 1.1 µM and inactive = higher.

Columns and labels:
Assay in all cases: DTP human tumour cell line panel, 48 h
[1] = system: 786-0
[2] = system: A498
[3] = system: A549
[4] = system: ACHN
[5] = system: BT-549
[6] = system: CAKI-1
[7] = system: CCRF-CEM
[8] = system: COLO 205
[9] = system: DU-145
[10] = system: EKVX
[11] = system: HCC 2998
[12] = system: HCT-116
[13] = system: HCT-15
[14] = system: HL-60
[15] = system: HOP-62
[16] = system: HOP-92
[17] = system: HT-29
[18] = system: Hs-578T
[19] = system: IGROV-1
[20] = system: K562
[21] = system: KM12
[22] = system: LOX IMVI
[23] = system: M14
[24] = system: MCF7
[25] = system: MDA-MB-231
[26] = system: MDA-MB-435
[27] = system: MDA-N
[28] = system: MOLT-4
[29] = system: Malme-3M
[30] = system: NCI-H226
[31] = system: NCI-H23
[32] = system: NCI-H460
[33] = system: NCI-H522
[34] = system: NCI/ADR-RES
[35] = system: OVCAR-3
[36] = system: OVCAR-4
[37] = system: OVCAR-5
[38] = system: OVCAR-8
[39] = system: PC-3
[40] = system: RPMI-8226
[41] = system: RXF 393
[42] = system: SF-268
[43] = system: SF-295
[44] = system: SF-539
[45] = system: SK-MEL-28
[46] = system: SK-MEL-2
[47] = system: SK-MEL-5
[48] = system: SN12C
[49] = system: SNB-19
[50] = system: SNB-75
[51] = system: SR
[52] = system: SW-620
[53] = system: TK-10
[54] = system: U-251
[55] = system: UACC-257
[56] = system: UACC-62
[57] = system: UO-31

## O=C(O)c1cc2ccccc2oc1=O [COUMARIN-3-CARBOXYLIC ACID]
[1]
  GI50: > 100 µM (inactive)
[2]
  GI50: > 100 µM (inactive)
[3]
  GI50: > 100 µM (inactive)
[4]
  GI50: > 100 µM (inactive)
[5]
  GI50: > 100 µM (inactive)
[6]
  GI50: > 100 µM (inactive)
[7]
  GI50: > 100 µM (inactive)
[8]
  GI50: > 100 µM (inactive)
[9]
  GI50: > 100 µM (inactive)
[10]
  GI50: > 100 µM (inactive)
[11]
  GI50: > 100 µM (inactive)
[12]
  GI50: > 100 µM (inactive)
[13]
  GI50: > 100 µM
[14]
  GI50: > 100 µM (inactive)
[15]
  GI50: > 100 µM (inactive)
[16]
  GI50: > 100 µM (inactive)
[17]
  GI50: > 100 µM (inactive)
[18]
  GI50: > 100 µM (inactive)
[19]
  GI50: > 100 µM (inactive)
[20]
  GI50: > 100 µM (inactive)
[21]
  GI50: > 100 µM (inactive)
[22]
  GI50: > 100 µM (inactive)
[23]
  GI50: > 100 µM (inactive)
[24]
  GI50: > 100 µM (inactive)
[25]
  GI50: > 100 µM (inactive)
[26]
  GI50: > 100 µM (inactive)
[27]
  GI50: > 100 µM (inactive)
[28]
  GI50: > 100 µM (inactive)
[29]
  GI50: > 100 µM (inactive)
[30]
  GI50: > 100 µM (inactive)
[31]
  GI50: > 100 µM (inactive)
[32]
  GI50: > 100 µM (inactive)
[33]
  GI50: > 100 µM (inactive)
[34]
  GI50: > 100 µM (inactive)
[35]
  GI50: > 100 µM (inactive)
[36]
  GI50: > 100 µM (inactive)
[37]
  GI50: > 100 µM (inactive)
[38]
  GI50: > 100 µM (inactive)
[39]
  GI50: > 100 µM (inactive)
[40]
  GI50: > 100 µM (inactive)
[41]
  GI50: > 100 µM (inactive)
[42]
  GI50: > 100 µM (inactive)
[43]
  GI50: > 100 µM (inactive)
[44]
  GI50: > 100 µM (inactive)
[45]
  GI50: > 100 µM (inactive)
[46]
  GI50: > 100 µM (inactive)
[47]
  GI50: > 100 µM (inactive)
[48]
  GI50: > 100 µM (inactive)
[49]
  GI50: > 100 µM (inactive)
[50]
  GI50: > 100 µM (inactive)
[51]
  GI50: > 100 µM (inactive)
[52]
  GI50: > 100 µM (inactive)
[53]
  GI50: > 100 µM (inactive)
[54]
  GI50: > 100 µM (inactive)
[55]
  GI50: > 100 µM (inactive)
[56]
  GI50: > 100 µM (inactive)
[57]
  GI50: > 100 µM (inactive)
